Experimental data from patent US20050148514A1, “Method and composition for treatment of angiogenesis” (priority 2003, published 2005).
Where no end group is shown, it is not given here.

Key:
Format in all cases: cell-based
[1] = test system: ERK; assay: Intrinsic effect on ERK phosphorylation (western blot)
Experimental: (§1) In order to investigate the potential intracellular pathways triggered by the PCK3145 derivative, a gene-reporter assay using the SEAP (Secreted Alkaline Phosphatase) Mercury Profiling Kit (CLONTECH) was performed in glioma cells (U-87). This assay enables the monitoring of transcription factors that are triggered by a particular experimental condition by assaying the alkaline phosphatase activity in the extracellular media. […] The induction of the MAPK pathway by the PCK3145 derivative is further confirmed by the rapid and transient induction of ERK phosphorylation between 5-10 minutes (FIG. 8B) and is shown to be dose-dependent (FIG. 8C). Finally, the effects of the PCK3145 derivative were also compared to those of a scrambled peptide.

[2] = test system: ERK; assay: VEGF-induced ERK phosphorylation in BAEC; details: data not shown
Experimental: VEGF is a strong activator of ERKs (Extracellular-signal-Regulated protein Kinases) 1 and 2 via VEGF receptor 2. In order to test the ability of the PCK3145 derivative in potentially antagonizing VEGF-mediated ERK phosphorylation, serum-starved quiescent endothelial cells (HUVEC) were incubated with vehicle (phosphate-buffered saline (PBS) pH 7.4) or PCK3145 derivative (300 μg/ml) for 24 h and then stimulated with VEGF, bFGF (basic Fibroblast Growth Factor) or S1P (sphingosine-1-phosphate). Cells were washed with PBS containing NaF/Na3VO4 and incubated in the same medium buffer for 1 h at 4° C. The cells were scraped from the culture dishes and the resulting lysates clarified by centrifugation. Western blotting and immunodetection using anti-phosphoERK and anti-ERK antibodies was then performed.
The total amount of ERK in each sample of cells was unaffected by the PCK3145 derivative (FIG. 4A). Although, PCK3145 derivative also seemed to stimulate ERK phosphorylation induced by S1P in HUVEC (FIG. 4A), that result was found not statistically significant.

[3] = test system: MMP-9; assay: Gelatin zymography of culture media of MatLyLu tumor cells; details: 50 ug/ml collagen type-I, 500 ug/ml and 1 mg/ml, 72 hrs, serum free
Experimental: Zymography. Zymography is a technique generally used to analyze the activity of matrix metalloproteinases (MMPs) in biological samples. It involves the electrophoretic separation of proteins under denaturing (Sodium Dodecyl Sulfate (SDS)) but non-reducing conditions through a polyacrylamide gel containing gelatin (for example, 10% gel containing 1 mg/ml gelatin for MMP-9 and MMP-2 assays). The resolved proteins are re-natured by exchanging SDS with a non-ionic detergent such as Triton X-100 and the gel is incubated in an incubation buffer for activation of MMP-2 and MMP-9 (for example at 37° C. for 18 hrs). The gel is stained with Coomassie blue and the MMP-2 and MMP-9 bands may be visualized as clear bands against a blue background (i.e., the MMPs degrade the gelatin and are visualized as clear bands; pro MMP-2 is 68 kDa and pro-MMP-9 is 92 kDa). These bands can be quantified using densitometry.
In the experiment presented in FIG. 1, 2.5×10^5 MatLyLu tumor cells (American Type Culture Collection No.: JHU-5)) were seeded in T-25 flasks containing RPMI with 10% fetal bovine serum (FBS). […]
The media were collected after 72 hours of exposure to the PCK3145 derivative and subjected to gelatin zymography. […] The band intensities were determined using the Image Quant software (version 5.0) from molecular Dynamics. […]

[4] = test system: constitutive secretion pathway; assay: SEAP gene-reporter assay in U-87 glioma cells, constitutively expressed SEAP
Experimental: as §1

EWQTDNCETCTCYET (cysteine pairing not given here)
dose dependence of induction of ERK phosphorylation ([1]; dose-response): dose-dependent | time of rapid and transient induction of ERK phosphorylation ([1]; time-course, no growth factor): 5 to 10 min | ERK phosphorylation induced by VEGF [2]: inhibitory effect was confirmed | MMP-9 secreted in the cell culture media, zymography [3]: dose-dependent reduction | secretion of the constitutively expressed SEAP [4]: inhibited
